Laboratory results as given in paper PMC8845285, “Serotoninergic receptor ligands improve Tamoxifen effectiveness on breast cancer cells” (BMC Cancer, 2022).

Legend:
[1] = target: T1, serotonin 5-HT1A receptor (Rattus norvegicus, UniProt P19327); assay: radioligand binding assay, 5-HT1A, [3H]-8-OH-DPAT; details: rat brain cortex
T1 construct: serotonin 5-HT1A receptor, [^3H]-8-OH-DPAT, rat brain cortex; from tissue; host or cells: rat brain cortex
T1 sequence (P19327 1-422): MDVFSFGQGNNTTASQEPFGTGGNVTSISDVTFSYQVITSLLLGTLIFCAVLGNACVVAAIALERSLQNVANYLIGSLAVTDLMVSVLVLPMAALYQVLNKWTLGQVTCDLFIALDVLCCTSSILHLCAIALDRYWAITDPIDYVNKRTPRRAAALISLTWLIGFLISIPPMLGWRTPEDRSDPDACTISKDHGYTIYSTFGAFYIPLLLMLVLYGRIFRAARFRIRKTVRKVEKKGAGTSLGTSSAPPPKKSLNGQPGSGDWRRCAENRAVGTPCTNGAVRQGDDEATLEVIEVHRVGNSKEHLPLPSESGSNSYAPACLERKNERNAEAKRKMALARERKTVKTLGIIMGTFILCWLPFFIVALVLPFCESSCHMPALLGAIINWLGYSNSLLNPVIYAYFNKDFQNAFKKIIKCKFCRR
Procedure: (§1) All reactions were monitored by TLC, carried out on Merck 60G F254 plates with fluorescent indicator and the plates were visualized with UV light (254 nm). Each final compound and intermediate was purified by silica gel column chromatography (Macherey-Nagel 60 0,063–0,2 mm/70–230 mesh). […] Unless otherwise stated, all spectra were recorded in CDCl3. Chemical shifts are reported in ppm using Me4Si as internal standard. The following abbreviations are used to describe peak patterns when appropriate: s (singlet), d (doublet), t (triplet), m (multiplet), q (quartet), qt (quintet), dd (double doublet), ddd (double dd), bs (broad singlet). Mass spectra of the final products were performed on LTQ Orbitrap XL™ Fourier transform mass spectrometer (FTMS) equipped with ESI ION MAX™ source (Thermo Fisher, San José, USA). Melting points were determined using a Buchi B-540 hot-stage instrument and are uncorrected. […] All the compounds were dissolved in 5% DMSO. The following specific radioligands and tissue sources were used: (a)serotonin 5-HT1A receptor, [^3H]-8-OH-DPAT, rat brain cortex; (b) serotonin 5-HT2A receptor, [^3H]ketanserin, rat brain cortex; (c)serotonin 5-HT2C receptor, [^3H]mesulergine, rat brain cortex. Non-specific binding was determined as described in the experimental section, and specific binding as the difference between total and non-specific binding. […] The IC50 values obtained were used to calculate apparent inhibition constants (Ki) by the method of Cheng and Prussoff, from the following equation: Ki = IC50/(1 + S/KD) where S represents the concentration of the hot ligand used and KD its receptor dissociation constant (KD values, obtained by Scatchard analysis, were calculated for each labeled ligand). Radioligand binding assays for 5-HT1A were performed following a published procedure. 5-HT2A and 5-HT2C binding assays were performed reported by Herndon et al..

[2] = target: T2, serotonin 5-HT2C receptor (Rattus norvegicus, UniProt P08909); assay: radioligand binding assay, 5-HT2C, [3H]mesulergine; details: rat brain cortex; read-out: Ki ± SD, 5-HT2C [3H]Mesulergine
T2 construct: serotonin 5-HT2C receptor, [^3H]mesulergine, rat brain cortex; from tissue; host or cells: rat brain cortex
T2 sequence (P08909 33-460): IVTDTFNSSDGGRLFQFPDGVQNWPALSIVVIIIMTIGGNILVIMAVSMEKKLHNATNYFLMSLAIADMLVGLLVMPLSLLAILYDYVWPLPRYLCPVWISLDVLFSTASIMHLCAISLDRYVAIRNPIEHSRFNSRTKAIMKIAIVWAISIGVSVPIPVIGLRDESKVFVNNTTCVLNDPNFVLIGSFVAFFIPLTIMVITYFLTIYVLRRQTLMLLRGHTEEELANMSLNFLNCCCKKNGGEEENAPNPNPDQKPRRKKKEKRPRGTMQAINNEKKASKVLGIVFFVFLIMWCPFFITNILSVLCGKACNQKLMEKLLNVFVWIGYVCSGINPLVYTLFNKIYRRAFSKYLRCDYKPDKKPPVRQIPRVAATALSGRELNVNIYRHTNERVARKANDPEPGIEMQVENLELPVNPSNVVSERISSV
Procedure: as §1

CTGF = CTGF mRNA levels in MCF7-R cells, qPCR; format: cell-based, human; details: SER 20 μM
Procedure: Total RNA was isolated from cells, quantified (NanoDrop spectrophotometer, Life Technologies, Carlsbad, CA, USA) and reverse transcribed according to the manufacturer’s instructions. Semiquantitative PCR and qPCR assays were performed according to manufacturer’s instructions for Bio-Rad T100 thermal cycler and CFX Connect Real Time system (Biorad, Hercules, CA, USA), respectively. Relative gene expression quantification was measured by 2^−ΔΔCt method normalizing for the reference sample using Rps23 (Ribosomal Protein S23) as housekeeping gene.
Fig. 9 Effect of SER79 and SER68 on Tamoxifen-resistant (MCF7-R) cells. a Estrogen starved MCF7-R were treated with SER79 (20 μM, 5 μM) or SER68 (20 μM) in presence of E2 (100 nM). b Estrogen-starved MCF7-R were treated with Tamoxifen (5 μM) in presence of E2 and SER79 (20 μM) or SER68 (20 μM). a,b As positive control, the cells were treated with E2 alone, in absence or in presence of SER (dotted line). After 72 h, cell viability was assessed by sulforhodamine B assay (see Methods). The results were reported as percentage of viable cells compared to positive control, considered as maximum viability (100%). c mRNA levels of CTGF were determined by qPCR (see Methods and Table 1) in MCF7-R cells upon treatment with SER68 (20 μM). […]

## N#CN=C(NCCCN1CCN(C(c2ccc(F)cc2)c2ccc(F)cc2)CC1)c1ccccn1 [SER79]
[1]
  Ki ± SD, 5-HT1A [3H]8OH-DPAT: no affinity
[1]; read-out: Ki ± SD, 5-HT1A [3H]8OH-DPAT
  Ki: > 10 µM
[2]
  Ki: 21.4 ± 1.22 nM

## O=C1C2C3C=CC(C3)C2C(=O)N1OCCN1CCN(c2ccc(Cl)c(Cl)c2)CC1 (stereo not drawn) [SER68]
CTGF
  effect on CTGF mRNA content of MCF7-R cells: did not further reduce
[1]
  Ki ± SD, 5-HT1A [3H]8OH-DPAT: No affinity
[2]
  Ki: 1.13 ± 0.16 nM
